The source of these data is patent US20260317304A1, “TEAD INHIBITORS AND METHODS OF USE” (Sporos BioDiscovery, Inc., priority 2022, published 2026).

One test concerns NCI-H226 cells. The test is described as follows: Proliferation and cell viability assay, CellTiter-Glo 2.0 (CTG). Type of test: cell-based, human. Particulars: 144 hrs. The method, then: Cell proliferation of a TEAD dependent NF2-null mesothelioma cell line, NCI-H226 was assayed using two different protocols. Results were confirmed in two different TEAD-non-dependent lung cancer cell lines, H23 and H28, were used as non-responsive controls, as indicated:
a) CellTiter-Glo® 2.0 (Promega #G9243). The effect of the TEAD inhibitors disclosed herein on cell proliferation was determined in TEAD1-genetically dependent cell line NCI-H226 (responder cell line) and TEAD-independent cell lines (NCI-H23, HEK293T), as non-responder, negative control. Cells were seeded in 96-well plates (Thermo Scientific #167008) in growth media (RPMI-1640, Gibco #61870-010) for NCI-H226 and NCI-H23 or DMEM (Gibco #31966-021, HEK293T) with […] Heat Inactivated Fetal Bovine Serum (Gibco 10500-064) at 800 (NCI-H226 and HEK-293T) or 2000 (NCI-H23) cells per well at 37° C., […], humidified incubator; 24 hours later, fresh growth media containing test compound or DMSO vehicle was added and incubated with the cells for 144 hrs. TEAD inhibitor stocks were made at a 1000× fold excess in DMSO, and a dose response test compound dose range of 10,000 to 0.1 nM was used. Each treatment was carried out in triplicate. After 144 hrs of treatment, relative cell viability numbers were determined using the CellTiter-Glo 2.0 assay following the manufacturer's instructions. Test plates and CellTiter-Glo 2.0 reagent were allowed to equilibrate to room temperature. CellTiter-Glo 2.0 reagent was added at 1:1 reagent to media ratio to the 96-well cell plates, plates were placed on a plate shaker for 2 minutes and then incubated at room temperature for a further 10 minutes to allow complete cell lysis to occur. The mix was then transferred to white, 96-well luminometer assay plates (Greiner Bio One #655075). Luminescence was quantified using a CLARIOStar Plus multi-mode plate reader (BMG Labtech) in luminescence detection mode with the recommended settings (ultra-Glo pre-set: emission 545-50 nm with autofocus and enhanced dynamic range on). Relative cell density was expressed as a function of inhibitor concentration, with respect to DMSO-only control wells. Data where plotted using GraphPad Prism and IC50 values for the biological effect were calculated using the EC50 non-linear fit function using a sigmoidal, 4-parameter logistic, least squares fit with no constraints.
For IC50 and EC50 data “A” indicates a value of less than 0.2 μM; the symbol “B” indicates a value in the range of from 0.2 μM up to 1 μM; and the symbol “C” indicates a value of greater than 1 μM. ND: no data.
For orientation: Cellular ATP, detected with luciferase, serves as a proxy for viable cell number.

For the next test, the system named is BHY cells. The test is described as follows: BHY proliferation and cell viability assay (CTG). The settings on record: 144 hours. Type of test: cell-based. The protocol:
BHY cells were trypsinised, counted and plated at 2500 cells/well in 200 μl of growth media in 96 well flat bottom tissue culture treated plates. The plated cells were incubated overnight at 37° C., 5% CO2 before being treated with compounds in triplicate for each assay point. 50 μl of the serially diluted compound was added to each well giving a final DMSO concentration of 0.5% per well and a total volume of 250 μl per well. The treated cells were incubated for 144 hours (6 days) at 37° C., 5% CO2. Following compound treatment, the remaining viable cells were detected using the Promega CellTiter-Glo 2.0 assay as follows: 150 μl of media was removed from each of the wells to be assayed and 100 μl of room temperature CellTiter-Glo 2.0 reagent was added. The plate was placed on an orbital shaker at 500 rpm at room temperature for 2 minutes, and then incubated without shaking for a further 10 minutes at room temperature. 150 μl of cell lysate was removed from each well and dispensed into a single well of a white opaque 96 well plate. Luminescence at 545 nm was read using a BMG CLARIOstar plate reader. The luminescent signal was directly proportional to number of viable cells, the percent of viable cells relative to the DMSO control was then calculated for each assay point. Percent viability relative to DMSO control was plotted against compound concentration and a curve fitted with non-linear regression in GraphPad Prism software. EC50 and absolute IC50 values are calculated using GraphPad Prism software as follows: For EC50 values, a non-constrained four-parameter logistic curve fit was used (Sigmoidal, 4PL, X is concentration). For Absolute IC50 values the baseline was constrained to Y=0 and top at 100 (Absolute IC50, X is concentration). Area Under the Curve (AUC): Prism computes area-under-the-curve by the trapezoidal method. The analysis sees a fitted curve as simply a series of connected XY points. Prism simply computes the area under the “curve” defined by connecting the points by straight lines. The units of the AUC are the units of the Y axis times units of the X axis. […]

The next test relates to LOU-NH91 cells. In words: LOU-NH91 proliferation and cell viability assay (CTG). Particulars: 216 hours. The format is cell-based. The method, then:
LOU-NH91 cells were trypsinised, counted and plated at 1000 cells/well in 200 μl of growth media in 96 well flat bottom tissue culture treated plates. The plated cells were incubated overnight at 37° C., 5% CO2 before being treated with compounds in triplicate for each assay point. 50 μl of the serially diluted compound was added to each well giving a final DMSO concentration of 0.5% per well and a total volume of 250 μl per well. The treated cells were incubated for 216 hours (9 days) at 37° C., 5% CO2. Following compound treatment, the remaining viable cells were detected using the Promega CellTiter-Glo 2.0 assay as follows: 150 μl of media was removed from each of the wells to be assayed and 100 μl of room temperature CellTiter-Glo 2.0 reagent was added. The plate was placed on an orbital shaker at 500 rpm at room temperature for 2 minutes, and then incubated without shaking for a further 10 minutes at room temperature. 150 μl of cell lysate was removed from each well and dispensed into a single well of a white opaque 96 well plate. Luminescence at 545 nm was read using a BMG CLARIOstar plate reader. The luminescent signal was directly proportional to number of viable cells, the percent of viable cells relative to the DMSO control was then calculated for each assay point. Percent viability relative to DMSO control was plotted against compound concentration and a curve fitted with non-linear regression in GraphPad Prism software. EC50 and absolute IC50 values were calculated using GraphPad Prism software as follows: For EC50 values a non-constrained four-parameter logistic curve fit was used (Sigmoidal, 4PL, X is concentration). For Absolute IC50 values the baseline was constrained to Y=0 and top at 100 (Absolute IC50, X is concentration). Area Under the Curve (AUC): Prism computes area-under-the-curve by the trapezoidal method. The analysis sees a fitted curve as simply a series of connected XY points. Prism simply computes the area under the “curve” defined by connecting the points by straight lines. The units of the AUC are the units of the Y axis times units of the X axis. […]

Where [1] appears, read: Homo sapiens, NCI-H226, responder cell line.

In general, EC50 refers to the concentration giving half of the maximal effect. Read a high EC50 as a need for much substance. In the test with NCI-H226 cells (setting [1]), `Cn1nnc(-c2cc([C@]3(C)CCNC3=O)ccc2Nc2ccc(C(F)(F)F)cc2)n1` (stereo in doubt) [Compound 20, 3-methyl-3-(3-(2-methyl-2H-tetrazol-5-yl)-4-((4-(trifluoromethyl)phenyl)amino)phenyl) pyrrolidin-2-one] came in with an EC50 of less than 0.2 µM.

Regarding `C=CC(=O)Nc1ccc(C)c(Oc2ccc(Cl)cc2)c1` [Compound 1-3, reference compound], the 50% effective concentration (EC50) in the test on BHY cells and in the test with LOU-NH91 cells was less than 0.2 µM throughout.

Consider `Cn1cnc(-c2cc([C@@]3(C)CCNC3=O)ccc2Nc2ccc(C(F)(F)F)cc2)c1` (single isomer, unassigned) [Compound 5, 3-methyl-3-(3-(1-methyl-1H-imidazol-4-yl)-4-((4-(trifluoromethyl)phenyl)amino)phenyl)pyrrolidin-2-one], for which the EC50 in the test with BHY cells is 0.2 to 1 µM; in the test on LOU-NH91 cells, less than 0.2 µM; in the test on NCI-H226 cells (setting [1]), less than 0.2 µM.

As for `Cn1cnc(-c2cc(C3(C)NC(=O)NC3=O)ccc2Nc2ccc(C(F)(F)F)cc2)c1` (single isomer, unassigned) [Compound 15, 5-methyl-5-(3-(1-methyl-1H-imidazol-4-yl)-4-((4-(trifluoromethyl)phenyl)amino)phenyl)imidazolidine-2,4-dione], the EC50 in the test with NCI-H226 cells (responder cell line) is less than 0.2 µM.

With `FC(F)(F)c1ccc(CN2CCC(C3CC(Br)=NO3)CC2)cc1` (stereo not drawn) [Compound 1-2, reference compound], the figures for the EC50 with BHY cells and in the test on LOU-NH91 cells were greater than 1 µM and less than 0.2 µM, respectively.
